Experimental data taken from ChEMBL document CHEMBL3627635, “Synthesis and anti-proliferative activity of novel azazerumbone conjugates with chalcones” (Bioorg Med Chem Lett, 2015).
Values after ≈ are worked out from the molar mass of the structure shown.

test system: MCF7; test: Antiproliferative activity against human MCF7 cells; assay type: functional, cell-based

IC50	SMILES
2.78 µg/mL (≈ 4.14 µM)	COc1cc(/C=C/C(=O)c2ccc(OCCn3cc(CN4C(=O)/C=C/C(C)(C)C/C=C(\C)CC/C=C/4C)nn3)cc2O)cc(OC)c1OC
1.07 µg/mL (≈ 1.59 µM)	COc1ccc(/C=C/C(=O)c2ccc(OCCCN3C(=O)/C=C/C(C)(C)C/C=C(\C)CC/C=C/3C)cc2)cc1OCCCN1CCOCC1
0.58 µg/mL (≈ 0.987 µM)	COc1cc(/C=C/C(=O)c2ccc(OCCCN3C(=O)/C=C/C(C)(C)C/C=C(\C)CC/C=C/3C)cc2)cc(OC)c1OC
15.6 µg/mL (≈ 67 µM)	C/C1=C\CC(C)(C)/C=C/C(=O)N/C(C)=C/CC1
1.13 µg/mL (≈ 1.5 µM)	COc1ccc(/C=C/C(=O)c2ccc(OCCn3cc(CN4C(=O)/C=C/C(C)(C)C/C=C(\C)CC/C=C/4C)nn3)cc2O)cc1OCCCN1CCOCC1
3.17 µg/mL (≈ 6.01 µM)	COc1ccc(/C=C/C(=O)c2ccc(OCCCN3C(=O)/C=C/C(C)(C)C/C=C(\C)CC/C=C/3C)cc2)cc1
1.56 µg/mL (≈ 2.96 µM)	COc1ccccc1/C=C/C(=O)c1ccc(OCCCN2C(=O)/C=C/C(C)(C)C/C=C(\C)CC/C=C/2C)cc1
1.37 µg/mL (≈ 2.6 µM)	COc1cccc(/C=C/C(=O)c2ccc(OCCCN3C(=O)/C=C/C(C)(C)C/C=C(\C)CC/C=C/3C)cc2)c1

test system: HepG2; test: Antiproliferative activity against human HepG2 cells; assay type: functional, cell-based

IC50	SMILES
1.44 µg/mL (≈ 2.15 µM)	COc1cc(/C=C/C(=O)c2ccc(OCCn3cc(CN4C(=O)/C=C/C(C)(C)C/C=C(\C)CC/C=C/4C)nn3)cc2O)cc(OC)c1OC
1.53 µg/mL (≈ 2.28 µM)	COc1ccc(/C=C/C(=O)c2ccc(OCCCN3C(=O)/C=C/C(C)(C)C/C=C(\C)CC/C=C/3C)cc2)cc1OCCCN1CCOCC1
0.99 µg/mL (≈ 1.68 µM)	COc1cc(/C=C/C(=O)c2ccc(OCCCN3C(=O)/C=C/C(C)(C)C/C=C(\C)CC/C=C/3C)cc2)cc(OC)c1OC
34.6 µg/mL (≈ 148 µM)	C/C1=C\CC(C)(C)/C=C/C(=O)N/C(C)=C/CC1
1.59 µg/mL (≈ 2.11 µM)	COc1ccc(/C=C/C(=O)c2ccc(OCCn3cc(CN4C(=O)/C=C/C(C)(C)C/C=C(\C)CC/C=C/4C)nn3)cc2O)cc1OCCCN1CCOCC1
1.73 µg/mL (≈ 3.28 µM)	COc1ccc(/C=C/C(=O)c2ccc(OCCCN3C(=O)/C=C/C(C)(C)C/C=C(\C)CC/C=C/3C)cc2)cc1
1.44 µg/mL (≈ 2.73 µM)	COc1ccccc1/C=C/C(=O)c1ccc(OCCCN2C(=O)/C=C/C(C)(C)C/C=C(\C)CC/C=C/2C)cc1
1.38 µg/mL (≈ 2.62 µM)	COc1cccc(/C=C/C(=O)c2ccc(OCCCN3C(=O)/C=C/C(C)(C)C/C=C(\C)CC/C=C/3C)cc2)c1

test system: P338; test: Antiproliferative activity against mouse […] cells; assay type: functional, cell-based

SMILES	IC50
COc1cc(/C=C/C(=O)c2ccc(OCCn3cc(CN4C(=O)/C=C/C(C)(C)C/C=C(\C)CC/C=C/4C)nn3)cc2O)cc(OC)c1OC	0.89 µg/mL (≈ 1.33 µM)
COc1ccc(/C=C/C(=O)c2ccc(OCCCN3C(=O)/C=C/C(C)(C)C/C=C(\C)CC/C=C/3C)cc2)cc1OCCCN1CCOCC1	1.08 µg/mL (≈ 1.61 µM)
COc1cc(/C=C/C(=O)c2ccc(OCCCN3C(=O)/C=C/C(C)(C)C/C=C(\C)CC/C=C/3C)cc2)cc(OC)c1OC	0.77 µg/mL (≈ 1.31 µM)
C/C1=C\CC(C)(C)/C=C/C(=O)N/C(C)=C/CC1	6.25 µg/mL (≈ 26.8 µM)
COc1ccc(/C=C/C(=O)c2ccc(OCCn3cc(CN4C(=O)/C=C/C(C)(C)C/C=C(\C)CC/C=C/4C)nn3)cc2O)cc1OCCCN1CCOCC1	0.96 µg/mL (≈ 1.27 µM)
COc1ccc(/C=C/C(=O)c2ccc(OCCCN3C(=O)/C=C/C(C)(C)C/C=C(\C)CC/C=C/3C)cc2)cc1	1.3 µg/mL (≈ 2.46 µM)
COc1ccccc1/C=C/C(=O)c1ccc(OCCCN2C(=O)/C=C/C(C)(C)C/C=C(\C)CC/C=C/2C)cc1	0.83 µg/mL (≈ 1.57 µM)
COc1cccc(/C=C/C(=O)c2ccc(OCCCN3C(=O)/C=C/C(C)(C)C/C=C(\C)CC/C=C/3C)cc2)c1	1.1 µg/mL (≈ 2.08 µM)

test system: not listed separately; test: Antiproliferative activity against human Lu cells; assay type: functional, cell-based

SMILES	IC50
COc1cc(/C=C/C(=O)c2ccc(OCCn3cc(CN4C(=O)/C=C/C(C)(C)C/C=C(\C)CC/C=C/4C)nn3)cc2O)cc(OC)c1OC	1.28 µg/mL (≈ 1.91 µM)
COc1ccc(/C=C/C(=O)c2ccc(OCCCN3C(=O)/C=C/C(C)(C)C/C=C(\C)CC/C=C/3C)cc2)cc1OCCCN1CCOCC1	1.22 µg/mL (≈ 1.82 µM)
COc1cc(/C=C/C(=O)c2ccc(OCCCN3C(=O)/C=C/C(C)(C)C/C=C(\C)CC/C=C/3C)cc2)cc(OC)c1OC	1.01 µg/mL (≈ 1.72 µM)
C/C1=C\CC(C)(C)/C=C/C(=O)N/C(C)=C/CC1	17.8 µg/mL (≈ 76.4 µM)
COc1ccc(/C=C/C(=O)c2ccc(OCCn3cc(CN4C(=O)/C=C/C(C)(C)C/C=C(\C)CC/C=C/4C)nn3)cc2O)cc1OCCCN1CCOCC1	1.56 µg/mL (≈ 2.07 µM)
COc1ccc(/C=C/C(=O)c2ccc(OCCCN3C(=O)/C=C/C(C)(C)C/C=C(\C)CC/C=C/3C)cc2)cc1	2.56 µg/mL (≈ 4.85 µM)
COc1ccccc1/C=C/C(=O)c1ccc(OCCCN2C(=O)/C=C/C(C)(C)C/C=C(\C)CC/C=C/2C)cc1	2.82 µg/mL (≈ 5.34 µM)
COc1cccc(/C=C/C(=O)c2ccc(OCCCN3C(=O)/C=C/C(C)(C)C/C=C(\C)CC/C=C/3C)cc2)c1	1.06 µg/mL (≈ 2.01 µM)

test system: SW480; test: Antiproliferative activity against human SW480 cells; assay type: functional, cell-based

IC50	SMILES
2.61 µg/mL (≈ 3.89 µM)	COc1cc(/C=C/C(=O)c2ccc(OCCn3cc(CN4C(=O)/C=C/C(C)(C)C/C=C(\C)CC/C=C/4C)nn3)cc2O)cc(OC)c1OC
0.8 µg/mL (≈ 1.19 µM)	COc1ccc(/C=C/C(=O)c2ccc(OCCCN3C(=O)/C=C/C(C)(C)C/C=C(\C)CC/C=C/3C)cc2)cc1OCCCN1CCOCC1
0.71 µg/mL (≈ 1.21 µM)	COc1cc(/C=C/C(=O)c2ccc(OCCCN3C(=O)/C=C/C(C)(C)C/C=C(\C)CC/C=C/3C)cc2)cc(OC)c1OC
6.83 µg/mL (≈ 29.3 µM)	C/C1=C\CC(C)(C)/C=C/C(=O)N/C(C)=C/CC1
0.91 µg/mL (≈ 1.21 µM)	COc1ccc(/C=C/C(=O)c2ccc(OCCn3cc(CN4C(=O)/C=C/C(C)(C)C/C=C(\C)CC/C=C/4C)nn3)cc2O)cc1OCCCN1CCOCC1
2.92 µg/mL (≈ 5.53 µM)	COc1ccc(/C=C/C(=O)c2ccc(OCCCN3C(=O)/C=C/C(C)(C)C/C=C(\C)CC/C=C/3C)cc2)cc1
1.33 µg/mL (≈ 2.52 µM)	COc1ccccc1/C=C/C(=O)c1ccc(OCCCN2C(=O)/C=C/C(C)(C)C/C=C(\C)CC/C=C/2C)cc1
1.34 µg/mL (≈ 2.54 µM)	COc1cccc(/C=C/C(=O)c2ccc(OCCCN3C(=O)/C=C/C(C)(C)C/C=C(\C)CC/C=C/3C)cc2)c1
